Six compounds from US5756505A, “N-acylpiperazine derivative, antibacterial drug and anti-ulcer drug” (Shiseido Co., Ltd., priority 1995, dated 1998) can be followed below.

Assay [1] relates to isolated gastric fundic gland. The assay is described as follows: CAP: Acid Secretion Inhibition Test In Vitro ([14C]-aminopyrine uptake). The assay is classed as cell-based, rabbit (male Japanese White). To be noted: final concentration 10^-5 M, histamine 10^-5 M, rabbit gastric fundic gland; for inhibition at 10 µM: Oryctolagus cuniculus, read-out: CAP: acid secretion inhibitory rate. The method, then: CAP: Acid Secretion Inhibition Test In Vitro
The acid secretion inhibitory activity in a cell level is studied. It can also be used for studying the mechanism of the effect. […]
ii-a) Preparation of isolated gastric fundus gland suspension
First, an isolated gastric fundic gland sample was prepared. Namely, a male Japanese White rabbit (2.5 to 3 kg) was anesthetized to death with Nembutal™ and then the abdomen was incised. Immediately thereafter, the stomach was removed and, after its pyloric and cardiac antrum were severed, incised along its greater curvature into two sheets. The gastric contents adhering to the mucosal surface was washed out with ice-cooled PBS (-) and then carefully washed therein. The gastric wall was spread on a cork board with its mucosal surface facing up and the feed and mucus thereon were completely removed with sterile gauze. The mucosa was separated therefrom by a spatula and then collected in ice-cooled PBS (-). After being washed twice with PBS (-), the mucosa was minced into 2-3mm^3 pieces by scissors. These pieces were further washed twice with a nutrient solution. The nutrient solution comprises 132.4 mM of NaCl, 5.4 mM of KCl, 5 mM of Na2 HPO4 ·12H2 O, 1 mM of NaH2 PO4 ·2H2 O, 1.2 mM of MgSO4, 1 mM of CaCl2, 25 mM of HEPES, 2mg/ml of glucose, and 1 mg/ml of BSA. Into 70 ml of the nutrient solution containing 1 mg/ml of collagenase, minced mucosal pieces were dispersed and intensely stirred in a conical flask with a stirrer at 37° C. for 40 to 60 minutes. During this period, 100% O2 was sprayed on the nutrient solution surface and the pH was appropriately measured such that it was immediately adjusted to pH 7.4, when the value was therebelow, with a base. The nutrient solution was added to the reaction solution so as to attain the total amount of about 200 ml. After being filtered through a mesh, the suspension was divisionally introduced into 50 ml centrifuge tubes and left for 15 minutes such that gastric fundic gland was deposited. The supernatant was repeatedly removed by an aspirator, dispersed in the nutrient solution, and then left such that the gastric fundic gland was washed three times. At this time, without using a pipette, the suspension was alternately introduced into two centrifuge tubes so as to effect dispersion. The number of cells was counted under microscope and adjusted to 1.6×10^6 cells/ml. […]
ii-b) [^14 C]-aminopyrine uptake test
Then, [^14 C]-aminopyrine uptake test was performed. After an Eppendorf tube was weighed, 10 μl (final concentration: 10^-5 M) of histamine dissolved in the above-mentioned nutrient solution, 10 μl (final concentration: 10^-5 M) of the test compound dissolved in DMSO, and 10 μl (final concentration: 0.05 μCi/ml) of [^14 C]-aminopyrine diluted with the nutrient solution were introduced therein and then 970 μl of the isolated gastric fundic gland suspension prepared above were added thereto. Subsequently, this mixture was shaken at 37° C. for 40 minutes at 125 cycles/minute. After being centrifuged for 30 minutes 200 μl of its supernatant was collected into a mini-vial, while the rest was removed by an aspirator. The gland pellet was completely dried as the tube with its lid being opened was kept for one night in a drying oven at 80° C. and then the lid was closed and the weight was determined at room temperature. Then 100 μl of 1N KOH were added thereto and the tube with its lid being closed was treated at 60° C. for 1 to 2 hours so as to dissolve the pellet. Then, the contents thereof were transferred to a mini-vial. Into the mini-vial containing the supernatant or gland pellet, 4 ml of Atomlite™ were added and then the radioactivity was measured by a liquid scintillation counter. Here, after the radioactivity of the gland pellet was corrected by using a sample in which 20 mM of NaSCN were added so as to cancel the hydrogen ion concentration gradient, the integration ratio of aminopyrine specifically trapped by the gland pellet was calculated. […]

In assay [2] the test system is Helicobacter pyroli. The assay is described as follows: AHP: Antibacterial Activity Test Against Helicobacter pyroli. Type of assay: cell-based, Helicobacter pyroli NCTC 11637. To be noted: Helicobacter, NCTC11637, 168 h; H. pyroli NCTC 11637, agar dilution, 7 days; read-out: AHP: minimum inhibitory concentration (MIC). On the procedure: AHP: Antibacterial […] Against Helicobacter pyroli i)Meaning The minimum inhibitory concentration (MIC) against Helicobacter pyroli (microaerophilic gram-negative bacterium which is supposed to deeply involve in pathogenesis, relapse, and recrudescence of ulcer, referred to as "HP" in the following) is measured so as to find out compounds which have antimicrobial activity against Helicobacter pyroli. ii)Method MICs were determined by the agar dilution method. […] Grown colonies were transfered to the same plate and cultured for 3 days under the same condition. […] A 1,000 μg/ml solution of the sample compound containing DMSO not more than 25% was […] diluted 2-fold in sterile purified water. 100 μl volume from each dilution was mixed thoroughly with 900 μl of brucella agar supplemented with 5% horse blood and solidified in a 24 well micro plate. 10 μl of the bacterial suspension (about 10^3 cfu) was inoculated on this plate and cultured for 7 days under the same condition as that of preculture.

The subject of assay [3] is stress ulcer formation. The assay is described as follows: WIS: Restraint and Water Immersion Stress-Induced Ulcer Inhibition Test. Type of assay: in vivo, rat (male Crj:SD or Slc:SD). To be noted: rat; for WIS: ulcer formation inhibitory rate: 100 mg/kg oral, 7 hours stress. The method, then: WIS: Restraint and Water Immersion Stress-Induced Ulcer Inhibition Test
The degree of inhibition of the stress ulcer formation is tested.
Male Crj:SDor Slc:SD rats (6 to 7-week-old) were fasted overnight, but allowed free access to water. Each group has 5 to 8 of these rats. The sample compound was dissolved or suspended in an aqueous solution of 0.3% sodium carboxymethylcellulose or 0.05% Tween 80 and then was orally administered (100 mg/10 ml/kg). To a control group, the vehicle was administered. 10 minuts later, the rats were placed in a stress cage and immersed to the level of xipfoid process in a water bath (21° C.) for 7 hours. At the end of the stress, the rats were sacrificed by inhalation of ether or carbon dioxide. Then, the stomach of each was removed, inflated by injecting 10 ml of 5% formalin neutral buffer solution, and immersed in 1% formalin neutral buffer solution for 30 minutes or more to be fixed. The stomach was incised along the greater curvature and then the length of each erosion in the glandular portion was determined under dissecting microscope. The sum of the length of erosions per stomach was defined as ulcer index (UI).
The effect obtained when 100 mg/kg of the sample compound had been administered was expressed as ulcer formation inhibitory rate (%) as follows:
ulcer formation inhibitory rate (%)=[1-(UI in sample group/UI in control group)]×100

Values after ≈ are worked out from the molar mass of the structure shown.

As for `CC(C)Cc1cc(C(=O)N2CCN(CC(C)C)CC2)ccc1OCc1ccc(F)cc1F` [Example 27, 1-[4-(2,4-difluorobenzyloxy)-3-isobutylbenzoyl]-4-isobutylpiperazine], in assay [1], the “CAP: acid secretion inhibitory rate” value was 99%. Moreover, in assay [2], the MIC is 6.25 µg/mL (≈ 14.1 µM). For the same compound, in assay [3], the “WIS: ulcer formation inhibitory rate” value was found to be 60%.
As to `CC(C)Cc1cc(C(=O)N2CCN(C(=O)C(C)C)CC2)ccc1OCc1ccc(F)cc1` [Example 6, 1-[4-(4-fluorobenzyloxy)-3-isobutylbenzoyl]-4-isobutyrylpiperazine], the inhibition at 10 µM in assay [1] was determined as 57%. Further, the MIC in assay [2] is less than 3.13 µg/mL. In assay [3], the “WIS: ulcer formation inhibitory rate” value stood at 56%. For the same compound, in assay [3] (in vivo), the “anti-ulcer effect (in words)” value is on record as “sufficient effects”.
As to `CC(C)Cc1cc(C(=O)N2CCN(CC(C)C)CC2)ccc1OCc1ccccc1F` [Example 18, 1-[4-(2-fluorobenzyloxy)-3-isobutylbenzoyl]-4-isobutylpiperazine], in assay [1], the inhibition at 10 µM was 100%. Besides, in assay [2], the MIC is 12.5 µg/mL (≈ 29.3 µM). For the same compound, in assay [3], the “WIS: ulcer formation inhibitory rate” value is 64%.
`CC(C)Cc1cc(C(=O)N2CCN(CC(C)C)CC2)ccc1OCc1ccccc1` [Example 16, 1-(4-benzyloxy-3-isobutylbenzoyl)-4-isobutylpiperazine]: in assay [1], the inhibition at 10 µM was found to be 98%. The MIC in assay [2] came out at 50 µg/mL (≈ 122 µM). For the same compound, in assay [3], the “WIS: ulcer formation inhibitory rate” value is given as 72%.
As for `CC(C)Cc1cc(C(=O)N2CCN(CC(C)C)CC2)ccc1OCc1ccc(F)cc1.O=C(O)C(=O)O` [Example 25, 1-[4-(4-fluorobenzyloxy)-3-isobutylbenzoyl]-4-isobutylpiperazine oxalate], in assay [1], the “CAP: acid secretion inhibitory rate” value is on record as 95%. The MIC in assay [2] is 12.5 µg/mL. Moreover, the “WIS: ulcer formation inhibitory rate” value in assay [3] was 70%.
As for `CC(C)Cc1cc(C(=O)N2CCN(CC(C)C)CC2)ccc1OCc1ccc(Cl)cc1` [Example 17, 1-[4-(4-chlorobenzyloxy)-3-isobutylbenzoyl]-4-isobutylpiperazine], in assay [1], the inhibition at 10 µM is 99%. Moreover, the MIC in assay [2] came out at 12.5 µg/mL (≈ 28.2 µM). For the same compound, in assay [3], the “WIS: ulcer formation inhibitory rate” value came to 66%.
